Reference: patent US20110076349A1 (priority 2008, published 2011)
Structures can show the parent of a compound that is named as a salt.

Tests used:
Type in all cases: in vivo, mouse
mice [1] = test: Deep body temperature measurement, comparison with other test substances (FIG. 18); settings: same concentration for all test substances
mice [2] = test: Comparison of sedative effects with other test substances (FIG. 3); settings: same dose, 0.8 g/kg, p.o.
male C57BL/6N mice [3] = test: Open space swimming treatment and water maze learning (antidepressant-like effects); settings: phase 2 after open space swimming; 25 mg/kg intraperitoneal
Excerpt: Fifty (50) male C57BL/6N mice that had experienced no experiment were bred in an animal room with a constant temperature and humidity for which a 12-12-hour light-dark cycle had been set. Mice were sufficiently acclimatized to breeding environment and then used as subject animals. At the start of the experiment, mice were 10-14-week old and the average body weight was 23.7 g (SD=3.21). The subject animals were divided into four groups each consisting of 12 or 13 mice so that the groups were almost the same average body weights and average ages in weeks. These groups were designated an OS-Akino group, an OS-SSRI group, an OS-Vehicle group, and a noOS-Vehicle group, respectively. An experimental apparatus was a circular pool coated white having a diameter of 110 cm and a height of 40 cm. The pool was filled with water to the depth of 22 cm. Titanium oxide was added to make water cloudy. The water temperature was maintained at 24° C.±1 ° C.
The experiment was composed of two phases. In phase 1, subject mice of the 3 groups under OS conditions were subjected to open space swimming treatment (OS) for 5 straight days. Specifically, subject mice were released into the pool from a wall once a day and then caused to swim for 5 minutes. […] Specifically, 5 times a day, mice were released into the pool and then the time for the mice to reach the escape platform (escape latency) was measured. […]

male C57BL/6N mice [4] = test: Forced swimming treatment and amount of spontaneous activity in dark period (fatigue-relieving effects); settings: dark period after 30 minutes of forced swimming; compared with FS-Vehicle group
Procedure: An experiment for determining the fatigue-improving effects (action) was conducted using a forced swimming test for mice and a system for measuring the amount of spontaneous activity. Sixty eight (68) male C57BL/6N mice that had experienced no experiment were bred in an animal room with a constant temperature and humidity for which a 12-12-hour light-dark cycle had been set. Mice were sufficiently acclimatized to breeding environment and then used as subject animals. At the start of the experiment, mice were 10-12-week old and the average body weight was 22.8 g (SD =1.28). The subject animals were divided into seven groups so that the groups were almost the same in terms of average body weights and average ages in weeks. These groups were designated an FS-Akino group (n=11), an FS-Vehicle group (n=10), a noFS-Vehicle group (n=9), an FS-Dia group (n=9), an FS-Caf group (n=9), an FS-Imi group (n=11), and an FS-SSRI group (n=9).
A cylindrical water tank (with the bottom surface having a diameter of 18 cm and a height of 29 cm) placed in an experimental chamber capable of achieving sound proof and light shielding was filled with water at 24±1° C. to a depth of 15 cm. At 7 hours before the start of a dark period, subject mice under FS conditions were subjected to 30 minutes of forced swimming treatment in the tank. Specifically, subject mice were forced to swim under conditions in which they could not escape. Subject mice of the control noFS-Cnt group were left to stand within the same type of empty water tank for 30 minutes.
After 30 minutes of forced swimming treatment, Akino (the water soluble ingredient extracted from Hemerocallis fulva var. sempervirens), diazepam (Dia, 2.5 mg/kg), caffeine (Caf, 15 mg/kg), imipramine (Imi, 30 mg/kg), SSRI (fluvoxamine maleate, 25 mg/kg), or Vehicle (distilled water), which is an ingredient, corresponding to the latter half of each group name, were specifically administered to each subject mouse. Akino and distilled water were orally administered using a stomach tube, and diazepam, caffeine, imipramine, and SSRI were injected intraperitoneally. The dose was always 10 ml of solution per kg mouse body weight.
After administration of these drugs, subject mice were placed in acrylic cages (20 cm long×30 cm wide×12 cm high). The amount of spontaneous activity (in the dark period that began at 6 hours after administration) was continuously measured for 12 hours. The breeding cages used herein were sterilized in advance. All floor mats, feeding stuffs, water supply bottles, and the like used herein were newly prepared. The amount of spontaneous activity was measured using a system for measuring the amount of exercise of experimental animals (Muromachi Kikai Co., Ltd.) using Super Mex Sensor and dedicated software (CompACT AMS ver.3).

| SMILES | rectal temperature (deep body temperature) (mice [1]) | sedative effects (mice [2]) | water maze learning (male C57BL/6N mice [3]) | amount of spontaneous activity (male C57BL/6N mice [4]) |
| --- | --- | --- | --- | --- |
| NCCCC(=O)O [GABA, γ-aminobutyric acid] | lowered the deep body temperature, but the rate of decrease was lower | sedative effects |  |  |
| COCCCC/C(=N\OCCN)c1ccc(C(F)(F)F)cc1 [SSRI, fluvoxamine maleate] |  |  | good learning | equivalent to that of the FS-Vehicle group |
| NCC(=O)O [glycine] | lowered the deep body temperature, but the rate of decrease was lower | sedative effects |  |  |
| CCNC(=O)CC[C@H](N)C(=O)O [teanin] | lowered the deep body temperature, but the rate of decrease was lower | sedative effects |  |  |
| CN1C(=O)CN=C(c2ccccc2)c2cc(Cl)ccc21 [Dia, diazepam] |  |  |  | higher than that of the FS-Vehicle group |
| Cn1c(=O)c2c(ncn2C)n(C)c1=O [Caf, caffeine] |  |  |  | equivalent to that of the FS-Vehicle group |
| CN(C)CCCN1c2ccccc2CCc2ccccc21 [Imi, imipramine] |  |  |  | equivalent to that of the FS-Vehicle group |
